Counter-ions that a name gives are not always drawn. Calls of active or inactive are those of the source. The rule behind the calls is not given here. A value given as a limit tells only on which side of the number the result lay.

From ChEMBL document CHEMBL4130373, “Design, synthesis and biological evaluation of 4-anilinoquinoline derivatives as novel potent tubulin depolymerization agents” (Eur J Med Chem, 2017) come the findings set out here.

One data set relates to MDA-MB-231. Kind of data set: Antiproliferative activity against human MDA-MB-231 cells after 48 hrs by MTT assay. Type of data set: functional, cell-based. The note with it: MDA-MB-231, 48 h. A general note: Formazan colour is commonly taken as a measure of viable cells.
Data set [1] can be described thus: Solubility of the compound in physiological saline at 1 mg. Type of data set: physicochemical. The note with it: buffer.
The test system of the next data set is HCT-116. Kind of data set: Antitumor activity against human HCT116 cells xenografted in Balb/c athymic nude mouse assessed as tumor growth inhibition at 100 mg/kg, iv administered once in every 7 days measured on day 18 post treatment relative to control. Type of data set: functional. The settings on record: HCT-116, iv, read-out: TGI.
A further data set deals with Mus musculus. The experiment in a line: Toxicity in Balb/c athymic nude mouse xenografted with human HCT116 cells assessed as body weight loss at 100 mg/kg, iv administered once in every 7 days relative to control. Type of data set: organism-based. The settings on record: in vivo, 168 h. On the technique in general: A xenograft is tissue or cells of one species grown in another, often human tumour cells in immunodeficient mice.

The next data set deals with NCI/ADR-RES. The experiment in a line: Antiproliferative activity against human MCF7/ADR cells after 48 hrs by MTT assay. Type of data set: functional, cell-based.
Another data set has as its system HCT-8. The experiment in a line: Antiproliferative activity against human HCT8 cells after 48 hrs by MTT assay. Type of data set: functional, cell-based. The note with it: HCT-8, 48 h.
The test system of a further data set is A549. Kind of data set: Antiproliferative activity against human A549 cells after 48 hrs by MTT assay. Type of data set: functional, cell-based. The settings on record: A549, 48 h.
For data set [2], the system named is A2780S. The experiment in a line: Antiproliferative activity against human A2780S cells after 48 hrs by MTT assay. Type of data set: functional, cell-based.
Another data set has as its system MCF7. Kind of data set: Antiproliferative activity against human MCF7 cells after 48 hrs by MTT assay. Type of data set: functional, cell-based. The settings on record: MCF7, 48 h.
A further data set deals with L02. The experiment in a line: Antiproliferative activity against human LO2 cells after 48 hrs by MTT assay. Type of data set: cell-based. The note with it: L02, 48 h.
The subject of a further data set is HEK293. The experiment in a line: Antiproliferative activity against HEK293 cells after 48 hrs by MTT assay. The note with it: Homo sapiens, HEK293, 48 h. Type of data set: cell-based.
In data set [3] the test system is A2780S. The experiment in a line: Induction of alpha-tubulin depolymerization in human A2780S cells at 100 nM after 24 hrs by DAPI staining based immunofluorescence microscopic method. Type of data set: cell-based.
In the next data set the test system is HepG2. Kind of data set: Binding affinity to beta-tubulin colchicine binding site in human HepG2 cells assessed as reduction in EBI-beta-tubulin adduct formation at 5 uM preincubated for 2 hrs followed by EBI addition measured after 1.5 hrs by Western blot analysis. Type of data set: cell-based. (Immunoblotting shows a protein as a band on a membrane.)
The nature of data set [4]: Antiproliferative activity against human HCT8/T cells after 48 hrs by MTT assay. Type of data set: functional, cell-based. The settings on record: HCT-8, 48 h.
The next data set concerns A2780/Taxol. The experiment in a line: Antiproliferative activity against human A2780T cells after 48 hrs by MTT assay. Type of data set: functional, cell-based.
Data set [5] is described as follows: Resistance index, ratio of IC50 for human HCT8/T cells to IC50 for human HCT8 cells. Type of data set: functional.
A short description of data set [6]: Resistance index, ratio of IC50 for human A2780T cells to IC50 for human A2780S cells. Type of data set: functional.
The nature of data set [7]: Antiproliferative activity against human HCT8/V cells after 48 hrs by MTT assay. Type of data set: functional, cell-based. The note with it: HCT-8, 48 h.
The nature of data set [8]: Resistance index, ratio of IC50 for human HCT8/V cells to IC50 for human HCT8 cells. Type of data set: functional.

Regarding `COc1ccc(N(C)c2ccnc3ccccc23)cc1`, the IC50 (commonly the concentration needed to halve the response being measured) in the data set with MDA-MB-231 was above 500 nM. In addition, the solubility entry in [1] is recorded as “Insoluble”.

Turning to `COc1ccc(N(C)c2cc(C)nc3ccccc23)cc1NC(=O)CCCCCl`, the IC50 in the data set on MDA-MB-231 was determined as 363 nM. Further, the solubility result in [1] is reported as “Insoluble”.

With `COc1ccc(N(C)c2cc(C)nc3ccccc23)cc1NC(=O)CCCl`, in the data set on MDA-MB-231, the midpoint of inhibition, the IC50, lay at 96.6 nM. The solubility entry in data set [1] is recorded as “Soluble”.

In the data set on MDA-MB-231, `CCCCC(=O)Nc1cc(N(C)c2cc(C)nc3ccccc23)ccc1OC` showed an IC50 of 82.4 nM. For the same compound, in data set [1], the solubility result is given as “Insoluble”.

`COc1ccc(N(C)c2cc(C)nc3ccccc23)cc1N` returned an IC50 in the data set on MDA-MB-231 of 3.2 nM. Further, the solubility entry in data set [1] is “Insoluble”.

The compound `COc1ccc(N(C)c2cc(C)nc3ccccc23)cc1` displayed an IC50 in the data set with MDA-MB-231 of 6.6 nM. Further, the solubility entry in data set [1] is reported as “Insoluble”.

For the compound `O=c1[nH]cc(F)c(=O)[nH]1` [FLUOROURACIL], the inhibition in vivo at 100 mg/kg in the data set on HCT-116 was determined as 60.8%. Moreover, in the data set with Mus musculus, the Activity was below 10%.

As for `COc1ccc(N(C)c2cc(C)nc3ccccc23)cc1NC(=O)CN1CCSCC1`, in the data set on MDA-MB-231, the IC50 is above 500 nM. Besides, the solubility entry in data set [1] was “Soluble”.

`COc1ccc(N(C)c2cc(C)nc3ccccc23)cc1NC(=O)CN(C)CCC#N` came in with an IC50 in the data set with MDA-MB-231 above 500 nM. In addition, the solubility result in data set [1] is listed as “Insoluble”.

Consider `COc1ccc(N(C)c2cc(C)nc3ccccc23)cc1NC(=O)CCl`, for which the IC50 with MDA-MB-231 amounted to 6.6 nM. In data set [1], the solubility entry is “Soluble”.

In the data set with NCI/ADR-RES, `COc1cccc2c1C(=O)c1c(O)c3c(c(O)c1C2=O)C[C@@](O)(C(=O)CO)C[C@@H]3O[C@H]1C[C@H](N)[C@H](O)[C@H](C)O1` [DOXORUBICIN HYDROCHLORIDE] showed an IC50 of 54800 nM.

`COc1cc2c(c(OC)c1OC)-c1ccc(OC)c(=O)cc1[C@@H](NC(C)=O)CC2` [COLCHICINE]: the IC50 with MDA-MB-231 was found to be 38.2 nM; with HCT-8, 13.4 nM; with A549, 32.7 nM; with A2780S [2], 12.3 nM; in the data set with MCF7 it was 13.4 nM; in the data set on L02, 26.5 nM. In addition, the IC50 in the data set with HEK293 turned out to be 10.2 nM. Besides, the outcome with A2780S [3] and in the data set on HepG2 was Active.

In the data set with MDA-MB-231, `COC(=O)CCCC(=O)Nc1cc(N(C)c2cc(C)nc3ccccc23)ccc1OC` yielded an IC50 of 186 nM. In addition, the solubility result in [1] is given as “Insoluble”.

With `CCC(=O)Nc1cc(N(C)c2cc(C)nc3ccccc23)ccc1OC`, the IC50 in the data set on MDA-MB-231 was determined as 18.5 nM. The solubility entry in data set [1] is “Soluble”.

In the data set on MDA-MB-231, `COc1ccc(N(C)c2cc(Cl)nc3ccccc23)cc1` gave an IC50 above 500 nM. Further, the solubility entry in data set [1] is “Insoluble”.

`CCOC(=O)C(=O)Nc1cc(N(C)c2cc(C)nc3ccccc23)ccc1OC` returned an IC50 with MDA-MB-231 of 443 nM. For the same compound, the solubility result in data set [1] is “Soluble”.

Compound `COc1ccc(N(C)c2cc(C)nc3ccccc23)cc1NC(=O)CBr` registered an IC50 in the data set with MDA-MB-231 of 87.2 nM. Moreover, in [1], the solubility result is on record as “Soluble”.

`COc1ccc(N(C)c2cc(C)nc3ccccc23)cc1NC(=O)CNCCNc1ccccc1`: the IC50 in the data set with MDA-MB-231 came out at 83.6 nM. For the same compound, in [1], the solubility result is “Insoluble”.

For `COc1ccc(N(C)c2cc(C)nc3ccccc23)cc1NC(C)=O`, in the data set with MDA-MB-231, the IC50 came out at 9.1 nM. Further, the solubility entry in data set [1] was “Soluble”.

For `COc1ccc(N(C)c2cc(C)nc3ccccc23)cc1NC(=O)CN1CCCC(C)C1` (configuration not stated), in the data set on MDA-MB-231, the IC50 stood at 394 nM. Also, in data set [1], the solubility entry is on record as “Insoluble”.

For `CSc1ccc(N(C)c2cc(C)nc3ccccc23)cc1N`, it took 9.5 nM to reach half-maximal inhibition with MDA-MB-231 (IC50). Also, the solubility result in [1] is listed as “Soluble”.

In the data set with MDA-MB-231, `CCCC(=O)Nc1cc(N(C)c2cc(C)nc3ccccc23)ccc1OC` displayed an IC50 of 58.4 nM. Further, the solubility entry in data set [1] is “Insoluble”.

As for `CC(=O)O[C@H]1C(=O)[C@@]2(C)[C@H]([C@H](OC(=O)c3ccccc3)[C@]3(O)C[C@H](OC(=O)[C@H](O)[C@@H](NC(=O)c4ccccc4)c4ccccc4)C(C)=C1C3(C)C)[C@]1(OC(C)=O)CO[C@@H]1C[C@@H]2O` [PACLITAXEL], the IC50 is 17.4 nM with HCT-8, 12.3 nM in the data set with A2780S [2], 9880 nM in data set [4] and 25100 nM with A2780/Taxol. Moreover, the “Ratio IC50” value in data set [5] is 567.4; in [6], 2042.3. For the same compound, in the data set with A2780S [3], the outcome was inactive.

With `CC[C@]1(O)C[C@@H]2CN(CCc3c([nH]c4ccccc34)[C@@](C(=O)OC)(c3cc4c(cc3OC)N(C)[C@H]3[C@@](O)(C(=O)OC)[C@H](OC(C)=O)[C@]5(CC)C=CCN6CC[C@]43[C@@H]65)C2)C1` [VINBLASTINE], the IC50 came out at 20.2 nM in the data set with HCT-8 and 2060 nM in data set [7]. Also, in data set [8], the “Ratio IC50” value is recorded as 101.8.

Compound `CSc1ccc(N(C)c2cc(C)nc3ccccc23)cc1` returned an IC50 with MDA-MB-231 of 15.5 nM. Moreover, the solubility result in data set [1] was “Soluble”.

In the data set with MDA-MB-231, `C=CC(=O)Nc1cc(N(C)c2cc(C)nc3ccccc23)ccc1OC` displayed an IC50 of 43.4 nM. In [1], the solubility entry was “Soluble”.

For `COC(=O)C(=O)Nc1cc(N(C)c2cc(C)nc3ccccc23)ccc1OC`, in the data set with MDA-MB-231, the IC50 was above 500 nM. Further, in [1], the solubility result is reported as “Insoluble”.

Regarding `COc1ccc(N(C)c2cc(Cl)nc3ccccc23)cc1N`, in the data set on MDA-MB-231, 43.1 nM corresponded to half-maximal inhibition (IC50). Besides, the solubility result in data set [1] is on record as “Insoluble”.

`COc1ccc(N(C)c2cc(C)nc3ccccc23)cc1NC(=O)CN1CCOCC1` displayed a concentration for half-maximal inhibition (IC50) in the data set with MDA-MB-231 of 256 nM. Further, the solubility result in [1] was “Insoluble”.

`COc1ccc(N(C)c2ccnc3ccccc23)cc1N` returned an IC50 in the data set with MDA-MB-231 above 500 nM. Moreover, in data set [1], the solubility result is “Soluble”.
